Reference: US20070219180A1, “Muscle Relaxtion Accelerator and Therapeutic Agent for Muscular Tissue Diseases Such as Muscle Relaxation Failure” (priority 2004, published 2007)

Key:
[1] = system: male Wistar rats; assay: Experiment 3: left ventricular diastolic function by tissue Doppler imaging; format: in vivo, rat; settings: 0.3 mg/kg i.v. over 30 s then 0.02 mg/kg/min for 20 min
Procedure: In this experiment on the invention, two 9-week old male Wistar rats weighing 310 and 320 g were used. The rats were anesthetized with 1,000 mg/kg of urethane and 80 mg/kg of α-chloralose by subperitoneal injection, and natural respiration was maintained. In this experiment, 100 mg of the compound was dissolved in 1 ml of dimethylsulfoxide (DMSO) and the resulting DMSO solution was stored at 4° C. Norepinephrine solution was prepared by dissolving 1 mg of norepinephrine in 41 μl of distilled water.
Similarly to Test drug 1, this study was performed at room temperature of 20 to 25° C., and also similarly to Test drug 1, continuous infusion catheters of calcium chloride solution or norepinephrine solution containing calcium chloride were inserted into the right external jugular vein and microchip catheters (SPC-320, Millar) were inserted into the aorta via the right common arteries.
A 1-lead electrocardiogram was recorded, and blood pressure, pulse, and electrocardiogram of the rats were monitored for 15 minutes and allowed to stabilize. In the preparation step, calcium chloride dissolved in 5% dextrose solution was infused into the right external jugular vein for 25 minutes at 16.6 μl/min (9.0 mg/kg/min of calcium chloride).
Secondly, immediate injection (intravenous injection) of a solution containing calcium chloride and norepinephrine without changes in dosage was started via the right external jugular vein at a rate of 40 μg/kg/min. After the start of administration, calcium chloride and norepinephrine were continuously injected in the form of a norepinephrine solution containing calcium chloride. Furthermore, with continuous injection of calcium chloride and norepinephrine (in the form of a norepinephrine solution containing calcium chloride), 0.2 ml of 1% DSMO was administered alone over 30 seconds to the first rat (weight: 310 g) as a control via the right femoral vein, 5 minutes after commencement of intravenous injection of calcium chloride and norepinephrine (in the form of a norepinephrine solution containing calcium chloride); this rat was defined as Control 4. Similarly to Control 4, with continuous injection of calcium chloride and norepinephrine (in the form of a norepinephrine solution containing calcium chloride) 0.2 ml of 1% DSMO solution containing 0.3 mg/kg of the test drug in the invention was administered over 30 seconds to a second rat (weight: 320 g; Test drug 3) via its right femoral vein, followed by administration for 20 minutes at 0.02 mg/kg/min, 5 minutes after intravenous injection of calcium chloride and norepinephrine (in the form of a norepinephrine solution containing calcium chloride). The left ventricular diastolic function of each rat was examined using tissue Doppler ultrasonography. Ultrasonic diagnostic equipment (Toshiba Powervision SSA-380APSK-70LT, Toshiba Corporation) was used and the rats were examined using ultrasound at 10 MHz. Firstly, the precordial region of each rat was shaved, and an ECHO probe was placed on the cardiac apex. The long axis of the left ventricle of the cardiac apex was imaged, a sample volume for pulsed-wave Doppler was established at the base of the posterior mitral leaflet, and the velocity of the left ventricular posterior wall motion [Ea wave (m/sec)] was measured at diastole as the left ventricular diastolic function. In this experiment, the left ventricular diastolic function is defined as the ratio of the velocity of the left ventricular wall motion at diastole before intravenous injection of norepinephrine (before administration; i.e. a normal left ventricular wall) determined using tissue Doppler imaging, or the ratio of the velocity of the left ventricular wall motion at diastole after intravenous injection of norepinephrine (after administration).

[2] = system: myosin light chains; assay: Experiment 5: amount of precipitate of myosin light chains; format: binding, swine; settings: concentration of the compound 10^−3 mol
Procedure: In this experiment, the effects of the compound were studied on the amount of precipitate of myosin light chains, which is a component of the troponin test sample used in Experiment 4.
A sample buffer for polyacrylamide gel electrophoresis (SDS-PAGE) was added to each washed test precipitate, which was prepared in the manner described above, and mixed well to suspend the test precipitate. The resulting suspension was electrophoresed on a gel (PAG MINI “No. 1” 10/20) for about 1 hour at 40 mA. After electrophoresis, the suspension was silver-stained using “Daiichi” 2D-silver staining reagent (Daiichi Pure Chemicals Co., Ltd), and washed with distilled water and dried. The amount of precipitate in each silver-stained protein band obtained by gel electrophoresis was quantitated using a densitometer. […] The protein band from gel electrophoresis was stained using a reagent for mass spectrometry (silver staining reagent for mass spectrometry, Wako Pure Chemical Industries Ltd.), and a peptide fragment obtained from the protein that gave the band in gel electrophoresis was analyzed using high performance liquid chromatography (MAGIC2002, Michrom BioResources, Inc, USA).

Question: How did the “Ratio of the velocity of the left ventricular wall motion at diastole” value (“Ratio of the velocity … at diastole” for short) ([1]; 0 minutes (just before the start of intravenous injection of the test drug)) turn out when COc1ccc2c(c1)CN(C(=O)CCN1CCC(Cc3ccccc3)CC1)CCS2 [the compound, 4-[3-(4-benzylpiperidine-1-yl)propionyl]-7-methoxy-2,3,4,5-tetrahydro-1,4-benzothiazepine] was run?
Answer: Its value is 1.00.

Question: And the “Ratio of the velocity … at diastole” value ([1]; CaCl2 + norepinephrine infusion, 5 minutes after the start of test drug)?
Answer: The value was 1.02.

Question: And the “Ratio of the velocity … at diastole” value ([1]; CaCl2 + norepinephrine infusion, 10 minutes after the start of test drug)?
Answer: Its value is 1.04.

Question: What about the “Ratio of the velocity … at diastole” value ([1]; CaCl2 + norepinephrine infusion, 15 minutes after the start of test drug) of the same molecule?
Answer: The value was 1.00.

Question: What about the “Ratio of the velocity … at diastole” value ([1]; CaCl2 + norepinephrine infusion, 20 minutes after the start of test drug) of the same molecule?
Answer: The value was 1.00.

Question: And the “Ratio of the velocity … at diastole” value ([1]; CaCl2 + norepinephrine infusion, 25 minutes after the start of test drug)?
Answer: The value was 0.94.

Question: And the “Ratio of the velocity … at diastole” value ([1]; CaCl2 + norepinephrine infusion, 30 minutes after the start of test drug)?
Answer: Its value is 0.95.

Question: What about the “Ratio of the velocity … at diastole” value ([1]; Ea wave relative to before norepinephrine, 5 minutes before test drug (just before the start of norepinephrine), baseline) of the same molecule?
Answer: Its value is 1.00.

Question: What about the “The amount of precipitate of myosin light chains (ratio to Test 1 = 1.0)” value ([2]; Test 3: Ca^2+ concentration 0 mol) of the same molecule?
Answer: Its value is 1.5.

Question: What about the “The amount of precipitate of myosin light chains (ratio to Test 1 = 1.0)” value ([2]; Test 4: Ca^2+ concentration 10^−5 mol) of the same molecule?
Answer: Its value is 1.4.
